Reference: paper PMC12087874, “Biaryl Phosphates and Phosphonates as Selective Inhibitors of the Transcription Factor STAT4” (Angewandte Chemie (International Ed. in English), 2025)
“Also recorded” adds a separate entry of the source. Square brackets hold non-standard residues; d marks the D form. Peptide text beside a SMILES is read from it. pY = N[C@@H](Cc1ccc(OP(=O)(O)O)cc1)C(=O)O

Key:
[1] = target: T1, STAT4 (Homo sapiens, UniProt Q14765); experiment: Competitive fluorescence polarization (FP) assay, STAT4 SH2 domain; format: binding; conditions: FP assay; for Ki: tracer 5-carboxyfluorescein-GpYLPQNID-OH, Ki derived from IC50, read-out: STAT4 K i; for Ki / IC50: mean ± SD, n = 3
T1 sequence (Q14765 1-748): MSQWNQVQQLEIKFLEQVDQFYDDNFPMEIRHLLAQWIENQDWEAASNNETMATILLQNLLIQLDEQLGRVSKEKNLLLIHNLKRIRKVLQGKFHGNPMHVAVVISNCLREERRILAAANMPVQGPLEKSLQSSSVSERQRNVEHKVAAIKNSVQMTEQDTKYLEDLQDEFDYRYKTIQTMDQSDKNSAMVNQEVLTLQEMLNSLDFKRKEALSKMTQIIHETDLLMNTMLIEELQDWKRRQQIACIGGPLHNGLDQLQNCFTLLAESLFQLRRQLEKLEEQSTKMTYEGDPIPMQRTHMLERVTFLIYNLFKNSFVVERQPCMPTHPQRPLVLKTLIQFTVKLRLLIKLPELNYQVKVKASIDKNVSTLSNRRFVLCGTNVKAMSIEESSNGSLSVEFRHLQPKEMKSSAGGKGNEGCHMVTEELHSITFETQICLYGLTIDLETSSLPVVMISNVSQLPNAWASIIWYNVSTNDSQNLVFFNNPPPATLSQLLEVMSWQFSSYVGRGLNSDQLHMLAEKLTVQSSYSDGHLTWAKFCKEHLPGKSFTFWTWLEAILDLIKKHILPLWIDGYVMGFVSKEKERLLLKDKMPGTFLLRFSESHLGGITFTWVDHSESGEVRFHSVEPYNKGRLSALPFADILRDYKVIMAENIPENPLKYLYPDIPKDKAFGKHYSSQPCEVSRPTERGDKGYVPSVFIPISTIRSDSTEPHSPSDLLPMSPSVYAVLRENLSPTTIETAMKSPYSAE
Method: (§1) Fluorescence polarization assays
(§2) Competitive fluorescence polarization assays, which measure the abilities of test compounds (dissolved in DMSO) to displace a fluorescent-labeled peptide from the SH2 domain of a STAT protein, were carried out essentially as described. Proteins were used at the following final concentrations: 23 nM or 28 nM for STAT4; between 56 nM and 91 nM for STAT1; 107 nM or 110 nM for STAT3; between 131 nM and 177 nM for STAT5a; between 62 nM and 85 nM for STAT5b; and 101 nM or 106 nM for STAT6. These concentrations represent the approximate […]
(§3) dissociation constant for peptide binding of the respective protein batches used in the assays.
(§4) The following peptides were used: 5-carboxyfluorescein-GpYLPQNID-OH for STAT4; 5-carboxyfluorescein-GpYDKPHVL for STAT1; 5-carboxyfluorescein-GpYLPQTV-NH2 for STAT3; 5-carboxyfluorescein-GpYLVLDKW for STAT5a/b, and 5-carboxyfluorescein- […]
(§5) Gp[…]-OH for STAT6. All peptides were used at a final concentration of 10 nM. The buffer consisted of 10 mM Tris (pH 8.0), 50 mM NaCl, 1 mM EDTA, 1 mM DTT, 0 .1 % Nonidet P-40 substitute, and 2 % DMSO. After incubation of protein and test compound for 1 h at room temperature, the fluorescent -labeled peptide was added. Samples were transferred to 384 - well microtiter plates and fluorescence polarization was read after an additional 60 min of incubation time. Measurements were performed in triplicate. Percent binding was calculated based on a logarithmic curve fit using OriginPro 8G software. IC 50 values were converted to Ki-values via the published equation[3] using the corresponding Excel spread sheet […]
(§6) https://websites.umich.edu/~shaomengwanglab/software/calc_ki/index.html .
(§7) Error bars represent standard deviations. Ligand efficiencies (LE) were calculated by the formula LE = -1,37 x log Ki / number of non-hydrogen atoms.[4] […]

[2] = target: STAT3 (Homo sapiens, UniProt P40763); experiment: Competitive fluorescence polarization (FP) assay, STAT3 SH2 domain; format: binding; conditions: tracer 5-carboxyfluorescein-GpYLPQTV-NH2, Ki derived from IC50
Method: as §1, §2, §3, §4, §5, §6, §7

[3] = target: T2, STAT1 (Homo sapiens, UniProt P42224); experiment: Competitive fluorescence polarization (FP) assay, STAT1 SH2 domain; format: binding; conditions: tracer 5-carboxyfluorescein-GpYDKPHVL, Ki derived from IC50
T2 sequence (P42224 1-750): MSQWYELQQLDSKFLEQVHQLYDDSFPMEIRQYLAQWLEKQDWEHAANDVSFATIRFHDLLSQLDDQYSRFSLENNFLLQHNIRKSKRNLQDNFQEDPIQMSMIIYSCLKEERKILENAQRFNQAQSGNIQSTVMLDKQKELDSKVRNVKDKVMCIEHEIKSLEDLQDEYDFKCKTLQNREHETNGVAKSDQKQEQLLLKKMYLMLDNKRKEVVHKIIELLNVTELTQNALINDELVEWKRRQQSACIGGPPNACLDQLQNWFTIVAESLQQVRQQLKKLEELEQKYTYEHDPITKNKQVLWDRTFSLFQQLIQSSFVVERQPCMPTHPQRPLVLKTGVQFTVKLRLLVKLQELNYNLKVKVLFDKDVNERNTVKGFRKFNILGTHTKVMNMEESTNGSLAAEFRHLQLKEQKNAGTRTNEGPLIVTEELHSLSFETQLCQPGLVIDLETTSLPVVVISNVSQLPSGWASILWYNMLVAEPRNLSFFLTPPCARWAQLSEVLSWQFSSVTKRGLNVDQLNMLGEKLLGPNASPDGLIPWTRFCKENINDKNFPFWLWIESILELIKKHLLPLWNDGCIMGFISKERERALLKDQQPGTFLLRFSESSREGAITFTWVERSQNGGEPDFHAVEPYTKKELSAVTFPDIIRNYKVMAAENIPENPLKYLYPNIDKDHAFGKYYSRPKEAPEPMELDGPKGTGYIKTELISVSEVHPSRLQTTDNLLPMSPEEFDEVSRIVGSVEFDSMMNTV
Method: as §1, §2, §3, §4, §5, §6, §7

[4] = target: T1, STAT4; experiment: IL-12-induced STAT4 Tyr693 phosphorylation in NK-92 cells (Western blot); format: cell-based; set-up: utilizing cellular lysates from the STAT4‐expressing natural killer cell line NK‐92; endogenous in cells; host or cells: NK-92 (DSMZ)
Method: NK-92 cells (DSMZ) were cultured in α-MEM containing 12.5% fetal bovine serum (FBS), 12.5% horse serum, 2 mM L-glutamine, penicillin/streptomycin and 50 U/ml IL -2. […]
The components of cell lysates from treated cells, or heat-treated lysates from CETSA, were separated by SDS-PAGE (10%), transferred to nitrocellulose membrane (Bio-Rad) and detected using monoclonal rabbit primary antibodies (Cell Signaling), α-rabbit-HRP secondary antibody (Dako) and Western Lightning Plus chemiluminescence reagent (Perkin Elmer).
Bands were visualized using an ImageQuant system (GE Healthcare) and quantitated using ImageJ software (NIH). […]
The sitting drop was composed of 0.1 µl protein solution and 0.1 µl reservoir solution. Plates were stored at 19°C in a protein […]
In the first set of experiments, w e tried to crystallize STAT4 as a SUMO -STAT4 fusion protein […]
was cleaved off as described above.
Screening for crystallization conditions for tag-free STAT4 was performed both in the absence or presence of 1 equivalent of 6m or 6h. Since the chosen protein concentration of 3.6 mg/ml appeared to be too low, screening was repeated with a higher concentration of 6.4 mg/ml STAT4 for all conditions (corresponding to 100 µM 6m). Both the SUMO-STAT4 and the tag-free STAT4 preferentially precipitated under conditions containing polyethylene glycol. In one set of experiments, we also screened for conditions in the presence of the high-affinity peptide GY(PO3H2)LPQNID adapted from the IL-12 receptor. However, none of the conditions resulted in the growth of STAT4 crystals (Table S4).

Sequence of STAT3 (P40763 whole entry, species assumed, the tested form may be a part): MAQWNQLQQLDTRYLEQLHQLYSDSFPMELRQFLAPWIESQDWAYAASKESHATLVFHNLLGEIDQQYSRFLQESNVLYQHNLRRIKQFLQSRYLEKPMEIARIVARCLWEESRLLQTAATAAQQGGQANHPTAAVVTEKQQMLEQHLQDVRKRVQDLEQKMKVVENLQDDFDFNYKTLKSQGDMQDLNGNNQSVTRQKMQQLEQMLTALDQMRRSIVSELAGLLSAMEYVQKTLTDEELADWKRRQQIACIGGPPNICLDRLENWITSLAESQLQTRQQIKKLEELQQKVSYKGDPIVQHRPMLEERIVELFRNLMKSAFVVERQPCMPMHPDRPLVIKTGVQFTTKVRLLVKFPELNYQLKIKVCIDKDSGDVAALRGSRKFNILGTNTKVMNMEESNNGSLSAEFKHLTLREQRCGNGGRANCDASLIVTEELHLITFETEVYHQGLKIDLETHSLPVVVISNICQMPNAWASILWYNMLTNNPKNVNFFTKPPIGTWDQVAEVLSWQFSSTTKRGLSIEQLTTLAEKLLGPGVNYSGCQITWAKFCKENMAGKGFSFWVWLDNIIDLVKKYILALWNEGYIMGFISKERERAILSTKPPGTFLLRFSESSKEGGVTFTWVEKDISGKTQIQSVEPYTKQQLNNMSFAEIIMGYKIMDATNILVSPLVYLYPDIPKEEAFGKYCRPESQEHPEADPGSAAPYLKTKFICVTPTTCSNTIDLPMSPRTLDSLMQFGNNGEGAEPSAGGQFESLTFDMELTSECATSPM

IC50 [1] | Compound | Ki [1] | further results
– | CC[C@H](C)[C@H](NC(=O)[C@H](CC(N)=O)NC(=O)[C@H](CCC(N)=O)NC(=O)[C@@H]1CCCN1C(=O)[C@H](CC(C)C)NC(=O)[C@H](Cc1ccc(OP(=O)(O)O)cc1)NC(=O)CNC(C)=O)C(=O)N[C@@H](CC(=O)O)C(=O)O [Ac‐GpYLPQNID, reference compound] (Ac-G[pY]LPQNID-OH) | 0.22 ± 0.02 µM | Ki [2]: 0.24 ± 0.04 µM; Ki [3]: 0.36 ± 0.08 µM
– | Oc1ccc(-c2ccc3ccccc3c2)cc1F [Compound 4m] | – | STAT4 inhibition at 200 µM ([1]; 200 µM): lack of activity; also recorded: no inhibition at 200 µM
– | O=P(O)(O)Cc1ccc(-c2ccc3ccccc3c2)cc1F [Compound 7] | – | inhibition at 100 µM ([1]; 100 µM, the highest concentration tested): 33 ± 4%
83 ± 2 µM | O=P(O)(O)C(F)(F)c1ccc(-c2ccoc2)cc1F [Compound 8b] | 39 ± 1 µM | –
15 ± 1 µM | Cn1cc(-c2ccc(C(F)(F)P(=O)(O)O)c(F)c2)cn1 [Compound 8c] | 8 ± 0.7 µM | –
7.7 ± 0.4 µM | O=P(O)(O)C(F)(F)c1ccc(-c2cccs2)cc1F [Compound 8d] | 3.6 ± 0.2 µM | –
6 ± 0.6 µM | O=P(O)(O)C(F)(F)c1ccc(-c2ccsc2)cc1F [Compound 8e] | 2.8 ± 0.3 µM | –
9.4 ± 0.2 µM | COC(=O)c1cc(-c2ccc(C(F)(F)P(=O)(O)O)c(F)c2)cs1 [Compound 8f] | 4.4 ± 0.1 µM | –
24 ± 4 µM | NC(=O)c1cc(-c2ccc(C(F)(F)P(=O)(O)O)c(F)c2)cs1 [Compound 8g] | 11 ± 2 µM | –
15 ± 1 µM | CC(=O)c1cc(-c2ccc(C(F)(F)P(=O)(O)O)c(F)c2)cs1 [Compound 8h] | 7.1 ± 0.6 µM | –
12 ± 2 µM | O=P(O)(O)C(F)(F)c1ccc(-c2csc(Cl)c2)cc1F [Compound 8i] | 5.5 ± 0.7 µM | –
15 ± 1 µM | O=P(O)(O)C(F)(F)c1ccc(-c2ccsc2Cl)cc1F [Compound 8j] | 7.3 ± 0.6 µM | –
18 ± 2 µM | Cc1sccc1-c1ccc(C(F)(F)P(=O)(O)O)c(F)c1 [Compound 8l] | 8.7 ± 0.9 µM | –
19 ± 1 µM | Cc1cscc1-c1ccc(C(F)(F)P(=O)(O)O)c(F)c1 [Compound 8m] | 8.9 ± 0.7 µM | –
– | CC(C)(C)C(=O)OCOP(=O)(Cc1ccc(-c2ccc3ccccc3c2)cc1F)OCOC(=O)C(C)(C)C [Compound 10] | – | inhibition of IL‐12‐induced STAT4 Tyr693 phosphorylation ([4]; 2 h, presence of 25% serum): inactive; also recorded: does not; inhibition of IL‐12‐induced STAT4 Tyr693 phosphorylation ([4]; absence of serum): still inactive

Compound | IC50 [1] | Ki [1] | further results
COC(=O)c1ccccc1-c1ccc(OP(=O)(O)O)cc1 [Compound 6a] | 18 ± 2 µM | 9.1 ± 0.8 µM | –
O=C(O)c1ccccc1-c1ccc(OP(=O)(O)O)cc1 [Compound 6b] | 17 ± 1 µM | 7.8 ± 0.5 µM | –
N#Cc1ccccc1-c1ccc(OP(=O)(O)O)cc1 [Compound 6c] | 5.2 ± 0.6 µM | 2.7 ± 0.3 µM | –
CC(=O)NCc1ccccc1-c1ccc(OP(=O)(O)O)cc1 [Compound 6d] | 12 ± 1 µM | 6.2 ± 0.4 µM | –
COc1cc(OC)cc(-c2ccc(OP(=O)(O)O)cc2)c1 [Compound 6e] | 3.9 ± 0.2 µM | 1.9 ± 0.1 µM | –
O=P(O)(O)Oc1ccc(-c2cccc3ccccc23)cc1 [Compound 6f] | 1.8 ± 0.2 µM | 0.84 ± 0.08 µM | –
O=P(O)(O)Oc1ccc(-c2ccccc2)c(F)c1 [Compound 6i] | 8.1 ± 0.1 µM | 3.8 ± 0.1 µM | –
O=P(O)(O)Oc1c(F)cc(-c2ccccc2)cc1F [Compound 6j] | 4.3 ± 0.3 µM | 2 ± 0.1 µM | –
O=P(O)(O)Oc1ccc(-c2ccccc2)cc1Cl [Compound 6k] | 7 ± 2 µM | 3.3 ± 1 µM | –
COc1cc(-c2ccccc2)ccc1OP(=O)(O)O [Compound 6l] | 47 ± 5 µM | 22 ± 2 µM | –
